# Laboratory results as given in patent publication US6764996B1, “9a-azalides with antibacterial activity” (Abbott Laboratories, priority 1999, dated 2004).
# Assays:
# Experiment in all cases: In vitro antibacterial activity, agar dilution MIC
# Assay type in all cases: cell-based
# [1] = system: Streptococcus bovis A-5169; details: code JJ: Streptococcus bovis A-5169; BHI agar, 35-37° C., 20 to 24 hours; unit assumed
# Experimental: (§1) Representative compounds of the present invention were assayed in vitro for antibacterial activity as follows: Twelve petri dishes containing successive aqueous dilutions of the test compound mixed with 10 mL of sterilized Brain Heart Infusion (BHI) agar (Difco 0418-01-5) were prepared. Each plate was inoculated with 1:100 (or 1:10 for slow-growing strains, such as Micrococcus and Streptococcus) dilutions of up to 32 different microorganisms, using a Steers replicator block. The inoculated plates were incubated at 35-37° C. for 20 to 24 hours. In addition, a control plate, using BHI agar containing no test compound, was prepared and incubated at the beginning and end of each test.
# (§2) An additional plate containing a compound having known susceptibility patterns for the organisms being tested and belonging to the same antibiotic class as the test compound was also prepared and incubated as a further control, as well as to provide test-to-test comparability. Erythromycin A was used for this purpose.
# (§3) After incubation, each plate was visually inspected. The minimum inhibitory concentration (MIC) was defined as the lowest concentration of drug yielding no growth, a slight haze, or sparsely isolated colonies on the inoculum spot as compared to the growth control.
# [2] = system: Haemophilislnfluenzae DILL AMP R; details: code WW: Haemophilislnfluenzae DILL AMP R; BHI agar, 35-37° C., 20 to 24 hours; unit assumed
# Experimental: as §1, §2, §3
# [3] = system: Nocardia Asteroides ATCC 99700; details: code VV: Nocardia Asteroides ATCC 99700; BHI agar, 35-37° C., 20 to 24 hours; unit assumed
# Experimental: as §1, §2, §3
# [4] = system: Streptococcus Pneumonia ATCC 6303; details: code XX: Streptococcus Pneumonia ATCC 6303; BHI agar, 35-37° C., 20 to 24 hours; unit assumed
# Experimental: as §1, §2, §3
# [5] = system: Staphylococcus epidermidis 3519; details: code HH: Staphylococcus epidermidis 3519; BHI agar, 35-37° C., 20 to 24 hours; unit assumed
# Experimental: as §1, §2, §3
# [6] = system: Staphylococcus aureus 1775; details: code GG: Staphylococcus aureus 1775; BHI agar, 35-37° C., 20 to 24 hours; unit assumed
# Experimental: as §1, §2, §3
# [7] = system: Staphylococcus aureus A-5177; details: code BB: Staphylococcus aureus A-5177; BHI agar, 35-37° C., 20 to 24 hours; unit assumed
# Experimental: as §1, §2, §3
# [8] = system: Staphylococcus aureus ATCC 6538P; details: code AA: Staphylococcus aureus ATCC 6538P; BHI agar, 35-37° C., 20 to 24 hours; unit assumed
# Experimental: as §1, §2, §3
# [9] = system: Staphylococcus aureus NCTC 10649M; details: code EE: Staphylococcus aureus NCTC 10649M; BHI agar, 35-37° C., 20 to 24 hours; unit assumed
# Experimental: as §1, §2, §3
# Escherichiacoli SS = details: code RR: Escherichiacoli SS; BHI agar, 35-37° C., 20 to 24 hours; unit assumed
# Experimental: as §1, §2, §3
# Candida albicans CCH 442 = details: code TT: Candida albicans CCH 442; BHI agar, 35-37° C., 20 to 24 hours; unit assumed
# Experimental: as §1, §2, §3
# [10] = system: Streptococcus pyogenes 930; details: code MM: Streptococcus pyogenes 930; BHI agar, 35-37° C., 20 to 24 hours; unit assumed
# Experimental: as §1, §2, §3
# [11] = system: Streptococcus pyogenes EES61; details: code LL: Streptococcus pyogenes EES61; BHI agar, 35-37° C., 20 to 24 hours; unit assumed
# Experimental: as §1, §2, §3
# [12] = system: Staphylococcus aureus A-5278; details: code CC: Staphylococcus aureus A-5278; BHI agar, 35-37° C., 20 to 24 hours; unit assumed
# Experimental: as §1, §2, §3
# [13] = system: Micrococcusluteus ATCC 4698; details: code PP: Micrococcusluteus ATCC 4698; BHI agar, 35-37° C., 20 to 24 hours; unit assumed
# Experimental: as §1, §2, §3
# [14] = system: Streptococcus agalactiae CMX 508; details: code KK: Streptococcus agalactiae CMX 508; BHI agar, 35-37° C., 20 to 24 hours; unit assumed
# Experimental: as §1, §2, §3
# [15] = system: Streptococcus Pneumonia 5649; details: code ZA: Streptococcus Pneumonia 5649; BHI agar, 35-37° C., 20 to 24 hours; unit assumed
# Experimental: as §1, §2, §3
# [16] = system: Streptococcus Pneumonia GYR 1171; details: code YY: Streptococcus Pneumonia GYR 1171; BHI agar, 35-37° C., 20 to 24 hours; unit assumed
# Experimental: as §1, §2, §3
# Escherichiacoli JUHL = details: code QQ: Escherichiacoli JUHL; BHI agar, 35-37° C., 20 to 24 hours; unit assumed
# Experimental: as §1, §2, §3
# [17] = system: Mycobacterium smegmatis ATCC 114; details: code UU: Mycobacterium smegmatis ATCC 114; BHI agar, 35-37° C., 20 to 24 hours; unit assumed
# Experimental: as §1, §2, §3
# [18] = system: Streptococcus pyogenes PIU 2548; details: code NN: Streptococcus pyogenes PIU 2548; BHI agar, 35-37° C., 20 to 24 hours; unit assumed
# Experimental: as §1, §2, §3
# [19] = system: Streptococcus Pneumonia 5979; details: code ZZ: Streptococcus Pneumonia 5979; BHI agar, 35-37° C., 20 to 24 hours; unit assumed
# Experimental: as §1
# An additional plate containing a compound having known susceptibility patterns for the organisms being tested and belonging to the same antibiotic class as the test compound was also prepared and incubated as a further control, as well as to provide test-to-test comparability.
# as §3
compound,measurement,setting,value
"CCC1OC(=O)C(C)C(=O)C(C)C(OC2OC(C)CC(N(C)C)C2O)C(C)(OCC=Cc2cnc3ccccc3c2)CC(C)CN(C)C(C)C2OC(=O)OC12C (centres unmarked) [Example 6, Compound of formula (II): R^1 is —CH2CH═CH-(3-quinolinyl), R^2 and R^3 together are oxo, R^4 and R^5 together are —C(O)—, R^6 is methyl, R^8 is hydrogen]",Antibacterial Activity (MIC),[1],0.02 µg/mL
same,Antibacterial Activity (MIC),[2],4 µg/mL
same,Antibacterial Activity (MIC),[3],0.1 µg/mL
same,Antibacterial Activity (MIC),[4],0.06 µg/mL
same,Antibacterial Activity (MIC),[5],0.2 µg/mL
same,Antibacterial Activity (MIC),[6],> 100 µg/mL
same,Antibacterial Activity (MIC),[7],12.5 µg/mL
same,Antibacterial Activity (MIC),[8],0.2 µg/mL
same,Antibacterial Activity (MIC),[9],0.39 µg/mL
same,Antibacterial Activity (MIC),Escherichiacoli SS,0.78 µg/mL
same,Antibacterial Activity (MIC),Candida albicans CCH 442,> 100 µg/mL
same,Antibacterial Activity (MIC),[10],> 100 µg/mL
same,Antibacterial Activity (MIC),[11],0.05 µg/mL
same,Antibacterial Activity (MIC),[12],> 100 µg/mL
same,Antibacterial Activity (MIC),[13],0.39 µg/mL
same,Antibacterial Activity (MIC),[14],0.05 µg/mL
same,Antibacterial Activity (MIC),[15],8 µg/mL
same,Antibacterial Activity (MIC),[16],0.03 µg/mL
same,Antibacterial Activity (MIC),Escherichiacoli JUHL,50 µg/mL
same,Antibacterial Activity (MIC),[17],6.2 µg/mL
same,Antibacterial Activity (MIC),[18],6.2 µg/mL
same,Antibacterial Activity (MIC),[19],> 128 µg/mL
"CCC1OC(=O)C(C)C(OC2CC(C)(OC)C(O)C(C)O2)C(C)C(OC2OC(C)CC(N(C)C)C2O)C(C)(OCC=Cc2cnc3ccccc3c2)CC(C)CN(C)C(C)C(O)C1(C)O (centres unmarked) [Example 7, Compound of formula (I): R^1 is —CH2CH═CH-(3-quinolinyl), R^4 is hydrogen, R^5 is hydrogen, R^6 is methyl, R^7 is hydrogen, R^8 is hydrogen]",Antibacterial Activity (MIC),[1],0.1 µg/mL
same,Antibacterial Activity (MIC),[2],8 µg/mL
same,Antibacterial Activity (MIC),[3],0.05 µg/mL
same,Antibacterial Activity (MIC),[4],0.12 µg/mL
same,Antibacterial Activity (MIC),[5],0.2 µg/mL
same,Antibacterial Activity (MIC),[6],> 100 µg/mL
same,Antibacterial Activity (MIC),[7],3.1 µg/mL
same,Antibacterial Activity (MIC),[8],0.1 µg/mL
same,Antibacterial Activity (MIC),[9],0.39 µg/mL
same,Antibacterial Activity (MIC),Escherichiacoli SS,0.39 µg/mL
same,Antibacterial Activity (MIC),Candida albicans CCH 442,> 100 µg/mL
same,Antibacterial Activity (MIC),[10],> 100 µg/mL
same,Antibacterial Activity (MIC),[11],0.05 µg/mL
same,Antibacterial Activity (MIC),[12],> 100 µg/mL
same,Antibacterial Activity (MIC),[13],0.2 µg/mL
same,Antibacterial Activity (MIC),[14],0.1 µg/mL
same,Antibacterial Activity (MIC),[15],16 µg/mL
same,Antibacterial Activity (MIC),[16],0.12 µg/mL
same,Antibacterial Activity (MIC),Escherichiacoli JUHL,100 µg/mL
same,Antibacterial Activity (MIC),[17],6.2 µg/mL
same,Antibacterial Activity (MIC),[18],6.2 µg/mL
same,Antibacterial Activity (MIC),[19],> 128 µg/mL
